Where two headings read alike, the source gives them in different places. Values belong to the compound of their own block, whether it stands above or below them.
Legend:
[1] = system: isolated guinea pig ileum; assay: Antileucotriene D4 Action (In Vitro Test): leukotriene D4 contractile response of isolated guinea pig ileum; format: cell-based; settings: Cavia porcellus, 0.5 h; read-out: Anti-LT action (IC50)
Description: Antileucotriene D4 Action (In Vitro Test)
An isolated guinea pig ileum was cut into about 2 cm lengths. Each ileum piece was suspended in a 20-ml container filled with the Krebs buffer. […] The Krebs buffer was controlled at 37° C., through which a mixed gas (95%O2 -5%CO2) was bubbled. […] After the ileum piece was washed several times with the buffer, a test compound (will be identified by its example number; this will apply likewise hereinafter) of a predetermined specific concentration was added.

[2] = target: T1, Leucotriene D4 Receptor (Cavia porcellus, UniProt Q2NNR5); assay: Leucotriene D4 Receptor Binding Inhibition Test; set-up: species or system guinea pig
T1 construct: guinea pig pulmomembranous protein; from tissue; host or cells: guinea pig lung membranes
T1 sequence (Q2NNR5 1-340): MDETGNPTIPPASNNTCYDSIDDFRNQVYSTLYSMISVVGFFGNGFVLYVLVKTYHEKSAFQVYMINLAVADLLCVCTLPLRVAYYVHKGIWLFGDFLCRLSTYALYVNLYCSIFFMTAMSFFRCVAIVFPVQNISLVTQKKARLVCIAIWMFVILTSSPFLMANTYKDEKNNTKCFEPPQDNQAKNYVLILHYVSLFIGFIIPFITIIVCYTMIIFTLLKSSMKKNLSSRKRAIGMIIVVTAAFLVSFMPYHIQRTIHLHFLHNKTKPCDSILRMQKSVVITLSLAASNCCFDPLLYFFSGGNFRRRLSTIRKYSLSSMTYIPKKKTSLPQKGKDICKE
Description: An ice-cooled tris hydrochloride/sodium chloride buffer (10 mM/100 mM, pH 7.5) was added to terminate the reaction, followed by immediate filtration through a Wattman CF/C filter. The filter was washed twice with 20 ml aliquots of the ice-cooled buffer. The radioactivity of the residue was measured by a liquid scintillation counter. […] Using the Cheng-Prusoff formula, a dissociation constant (KD) was calculated from the IC50. […] Incidentally, the values in Table 2 indicate dissociation constants KD (mol).

[3] = system: airway; settings: Larsen & Acosta 1993, cited from earlier work
[4] = 0.2 nM [3H]leukotriene D4, guinea pig pulmomembranous protein, pH 7.5, 30 min, calculated from IC50 by Cheng-Prusoff formula, read-out: LTD receptor, dissociation constant KD
[5] = read-out: LTD receptor, dissociation constant KD

Compound: [^3 H]leukotriene D4 [reference compound]
Kd ([2]; [3H]leukotriene D4, guinea pig pulmomembranous protein, read-out: dissociation constant (KD) of radioligand): 0.216 nM | Hill plot slope ([2]; [3H]leukotriene D4 binding): 0.99

Compound: O=C(O)c1cc(F)cc2c(=O)cc(-c3cccc(/C=C/c4ccc5ccccc5n4)c3)oc12 [Example 40, 8-carboxy-6-fluoro-3'-[2-(2-quinolinyl)ethenyl]flavone]
Kd [2, 4]: 127 nM

Compound: CCCCC/C=C\C\C=C/C=C/C=C/[C@@H](SC[C@H](NC(=O)CC[C@H](N)C(=O)O)C(=O)NCC(=O)O)[C@@H](O)CCCC(=O)O [LTC4]
effect on airway constriction relative to histamine ([3]; inhaled, vs histamine): 1,000 times

Compound: CCOC(=O)c1cc(Br)cc2c(=O)cc(-c3cccc(OCc4nc5ccccc5s4)c3)oc12 [Example 18, 6-bromo-8-ethoxycarbonyl-3'-[(2-benzothiazolinyl)methoxy]flavone]
Kd [2, 5]: 79.4 nM

Compound: CCOC(=O)c1cc(Br)cc2c(=O)cc(-c3cccc(OCc4ccc5ccc(Cl)cc5n4)c3)oc12 [Example 14, 6-bromo-8-ethoxycarbonyl-3'-[2-(7-chloroquinolinyl)methoxy]flavone]
Kd [2, 5]: 11.1 nM

Compound: O=C(O)c1cc(Br)cc2c(=O)cc(-c3cccc(OCc4nc5ccccc5s4)c3)oc12 [Example 27, 6-bromo-8-carboxy-3'-(2-benzothiazolylmethoxy)flavone]
Kd [2, 4]: 79.4 nM

Compound: O=C(O)c1cc(Br)cc2c(=O)cc(-c3cccc(OCc4ccc5ccccc5n4)c3)oc12 [Example 23, 6-bromo-8-carboxy-3'-(2-guinolinylmethoxy)flavone]
IC50 [1]: 61 nM

Compound: CCCCC/C=C\C\C=C/C=C/C=C/[C@@H](SC[C@H](N)C(=O)O)[C@@H](O)CCCC(=O)O [LTE4]
activity compared with the other leucotrienes [3]: lower activities compared with the other leucotrienes | duration of induced airway constriction [3]: long lasting

Compound: CCOC(=O)c1cc(Br)cc2c(=O)cc(-c3cccc(OCc4nc5ccccc5n4C)c3)oc12 [Example 17, 6-bromo-8-ethoxycarbonyl-3'-[2-(1-methylbenzimidazolyl)methoxy]flavone]
Kd [2, 5]: 210 nM

Compound: O=c1cc(-c2cccc(/C=C/c3ccc4ccccc4n3)c2)oc2ccc(-c3nnn[nH]3)cc12 [Example 37, 3'-[2-(2-quinolinyl)ethenyl]-6-(5-tetrazolyl)flavone]
Kd [2, 4]: 307 nM

More lines, now with the values ahead:

IC50 [1]: 28 nM
Compound: Cc1cc(C(=O)O)c2oc(-c3cccc(/C=C/c4ccc5ccccc5n4)c3)cc(=O)c2c1 [Example 43, 8-carboxy-6-methyl-3'-[2-(2-quinolinyl)ethenyl]flavone]

IC50 [1]: 15 nM
Compound: O=C(O)c1cc(Cl)cc2c(=O)cc(-c3cccc(/C=C/c4ccc5ccccc5n4)c3)oc12 [Example 41, 8-carboxy-6-chloro-3'-[2-(2-quinolinyl)ethenyl]flavone]

Kd [2, 5]: 805 nM
Compound: O=C(O)c1cccc2c(=O)c(O)c(-c3ccc(OCc4ccc5ccccc5n4)cc3)oc12 [Example 29, 8-carboxy-3-hydroxy-4'-[(2-quinolinyl)methoxy]flavone]

IC50 [1]: 100 nM
Compound: O=C(O)c1cc(Br)cc2c(=O)cc(-c3cccc(/C=C/c4ccc5ccccc5n4)c3)oc12 [Example 42, 8-carboxy-6-bromo-3'-[2-(2-quinolinyl)ethenyl]flavone]

Kd [2, 4]: 210 nM
Compound: Cn1c(COc2cccc(-c3cc(=O)c4cc(Br)cc(C(=O)O)c4o3)c2)nc2ccccc21 [Example 28, 6-bromo-8-carboxy-3'-[2-(1-methylbenzimidazolyl)methoxy]flavone]

Kd [2, 5]: 17.3 nM
Compound: O=C(O)c1cccc2c(=O)cc(-c3cccc(/C=C/c4ccc5ccccc5n4)c3)oc12 [Example 39, 8-carboxy-3'-[2-(2-quinolinyl)ethenyl]flavone]

Kd [2, 4]: 1130 nM
Compound: O=C(O)c1cc(Br)cc2c(=O)cc(-c3cccc(OCc4ccc5ccccc5c4)c3)oc12 [Example 26, 6-bromo-8-carboxy-3'-(2-naphthylmethoxy)flavone]

Kd [2, 5]: 9160 nM
Compound: O=C(O)c1cccc2c(=O)c(OCCN3C(=O)c4ccccc4C3=O)c(-c3ccc(OCc4ccc5ccccc5n4)cc3)oc12 [Example 31, 8-carboxy-3-(2-phthalimido)ethoxy-4'-[(2-quinolinyl)methoxy]flavone]

Kd [2, 5]: 11 nM
Compound: O=c1cc(-c2cccc(/C=C/c3ccc4ccccc4n3)c2)oc2c(-c3nn[nH]n3)cc(Cl)cc12 [Example 45, 6-chloro-3'-[2-(2-quinolinyl)ethenyl]-8-(5-tetrazolyl)flavone]

Reference: patent US6136848A, “Flavone derivative and medicine comprising the same” (Kowa Co., Ltd., priority 1996, dated 2000)
